Experimental data: US10954232B2, “Pyrazole derivative as ALK5 inhibitor and uses thereof” (HANMI PHARMACEUTICAL CO., LTD., priority 2016, dated 2021)

Target: T1, ALK5 kinase (Homo sapiens, UniProt P36897)
T1 construct: GST; purchased Thermo Fisher Scientific Solutions
T1 sequence (P36897 34-503): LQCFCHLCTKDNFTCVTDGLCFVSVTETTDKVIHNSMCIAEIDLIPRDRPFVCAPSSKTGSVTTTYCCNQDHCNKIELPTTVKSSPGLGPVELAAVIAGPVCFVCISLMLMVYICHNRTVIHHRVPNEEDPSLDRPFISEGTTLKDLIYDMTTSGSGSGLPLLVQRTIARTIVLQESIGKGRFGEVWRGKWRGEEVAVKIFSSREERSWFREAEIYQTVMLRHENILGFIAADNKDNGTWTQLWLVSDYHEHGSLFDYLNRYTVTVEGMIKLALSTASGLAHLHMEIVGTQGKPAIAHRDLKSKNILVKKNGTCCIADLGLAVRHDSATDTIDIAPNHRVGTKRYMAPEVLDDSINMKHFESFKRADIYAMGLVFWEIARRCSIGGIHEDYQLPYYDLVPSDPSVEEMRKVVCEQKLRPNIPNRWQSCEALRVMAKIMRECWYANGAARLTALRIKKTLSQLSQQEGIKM
Experiment: Activity inhibition test on ALK5 enzyme (LanthaScreen Eu binding kinase assay)
Conditions: kinase tracer 178, 60 minutes at room temperature
Description: For each of the compounds obtained in Examples 1 to 227, inhibitory activity against ALK5 kinase was measured.
For this, a LanthaScreen Eu binding kinase assay method was used, and ALK5 kinase, a kinase buffer, a kinase tracer 178, and a LanthaScreen Eu-GST binding antibody were all purchased from Thermo Fisher Scientific Solutions. Each of the compounds was made into a 10 mM DMSO solution, and diluted by 1/10 to a concentration of 1 μM to 0.0001 μM with an aqueous solution containing 4% DMSO. The test was performed in 384 well plates (well polystyrene low volume round-bottomed plates). First, 5 μL of the diluted compound solution was added, then 5 μL of the kinase/antibody mixture solution was introduced thereto, and 5 μL of the tracer was introduced thereto. Herein, these were added to each well so that the final kinase concentration became 5 nM, the final Eu-GST binding antibody concentration 2 nM, and the kinase tracer 178 concentration 10 nM, and the result was reacted in a stirrer for 60 minutes at room temperature. Then a fluorescence value was measured using a fluorescence meter (molecular device) ([…], 665 nm emission filter). Herein, as for the degree of compound activity to inhibit the kinase reaction, a phosphorylate rate was calculated from 0% to 100% with respect to a control group according to the protocol included in the kit, and a 50% inhibitory concentration (IC50) value was calculated by obtaining the x-axis concentration in the region where 50% activity was inhibited.

Structure (SMILES)	IC50 [nM]
Cc1cccc(-n2nc(C(=O)Nc3ccc(F)cc3)cc2-c2ccc3ncsc3c2)n1 [Example 29, 5-(benzo[d]thiazol-6-yl)-N-(4-fluorophenyl)-1-(6-methylpyridin-2-yl)-1H-pyrazole-3-carboxyamide]	3.9
Cc1cccc(-n2nc(C(=O)Nc3ccc(F)c(F)c3)cc2-c2ccc3ncsc3c2)n1 [Example 30, 5-(benzo[d]thiazol-6-yl)-N-(3,4-difluorophenyl)-1-(6-methylpyridin-2-yl)-1H-pyrazole-3-carboxyamide]	5.8
Cc1cccc(-n2nc(C(=O)Nc3ccccc3Cl)cc2-c2ccc3ncsc3c2)n1 [Example 31, 5-(benzo[d]thiazol-6-yl)-N-(2-chlorophenyl)-1-(6-methylpyridin-2-yl)-1H-pyrazole-3-carboxyamide]	> 100
Cc1cccc(-n2nc(C(=O)Nc3cccc(Cl)c3)cc2-c2ccc3ncsc3c2)n1 [Example 32, 5-(benzo[d]thiazol-6-yl)-N-(3-chlorophenyl)-1-(6-methylpyridin-2-yl)-1H-pyrazole-3-carboxyamide]	10 to 100
Cc1cccc(-n2nc(C(=O)Nc3ccc(Cl)cc3)cc2-c2ccc3ncsc3c2)n1 [Example 33, 5-(benzo[d]thiazol-6-yl)-N-(4-chlorophenyl)-1-(6-methylpyridin-2-yl)-1H-pyrazole-3-carboxyamide]	10 to 100
Cc1cccc(-n2nc(C(=O)Nc3ccc(Br)cc3)cc2-c2ccc3ncsc3c2)n1 [Example 34, 5-(benzo[d]thiazol-6-yl)-N-(4-bromophenyl)-1-(6-methylpyridin-2-yl)-1H-pyrazole-3-carboxyamide]	10 to 100
CSc1cccc(NC(=O)c2cc(-c3ccc4ncsc4c3)n(-c3cccc(C)n3)n2)c1 [Example 35, 5-(benzo[d]thiazol-6-yl)-1-(6-methylpyridin-2-yl)-N-(3-(methylthio)phenyl)-1H-pyrazole-3-carboxyamide]	10 to 100
CSc1ccc(NC(=O)c2cc(-c3ccc4ncsc4c3)n(-c3cccc(C)n3)n2)cc1 [Example 36, 5-(benzo[d]thiazol-6-yl)-1-(6-methylpyridin-2-yl)-N-(4-(methylthio)phenyl)-1H-pyrazole-3-carboxyamide]	< 10
Cc1cccc(-n2nc(C(=O)Nc3ccc(SC4CC4)cc3)cc2-c2ccc3ncsc3c2)n1 [Example 37, 5-(benzo[d]thiazol-6-yl)-N-(4-(cyclopropylthio)phenyl)-1-(6-methylpyridin-2-yl)-1H-pyrazole-3-carboxyamide]	40
Cc1cccc(-n2nc(C(=O)Nc3cccc([S+](C)[O-])c3)cc2-c2ccc3ncsc3c2)n1 (stereo not shown) [Example 38, 5-(benzo[d]thiazol-6-yl)-1-(6-methylpyridin-2-yl)-N-(3-(methylsulfinyl)phenyl)-1H-pyrazole-3-carboxyamide]	1.8
Cc1cccc(-n2nc(C(=O)Nc3ccc([S+](C)[O-])cc3)cc2-c2ccc3ncsc3c2)n1 (stereo not shown) [Example 39, 5-(benzo[d]thiazol-6-yl)-1-(6-methylpyridin-2-yl)-N-(4-(methylsulfinyl)phenyl)-1H-pyrazole-3-carboxyamide]	2.4

The remaining lines, values ahead:

IC50 [nM]	Structure (SMILES)
3.3	Cc1cccc(-n2nc(C(=O)Nc3cccc(S(C)(=O)=O)c3)cc2-c2ccc3ncsc3c2)n1 [Example 40, 5-(benzo[d]thiazol-6-yl)-1-(6-methylpyridin-2-yl)-N-(3-(methylsulfonyl)phenyl)-1H-pyrazole-3-carboxyamide]
5.2	Cc1cccc(-n2nc(C(=O)Nc3ccc(S(C)(=O)=O)cc3)cc2-c2ccc3ncsc3c2)n1 [Example 41, 5-(benzo[d]thiazol-6-yl)-1-(6-methylpyridin-2-yl)-N-(4-(methylsulfonyl)phenyl)-1H-pyrazole-3-carboxyamide]
2.2	CCCS(=O)(=O)c1ccc(NC(=O)c2cc(-c3ccc4ncsc4c3)n(-c3cccc(C)n3)n2)cc1 [Example 42, 5-(benzo[d]thiazol-6-yl)-1-(6-methylpyridin-2-yl)-N-(4-(propylsulfonyl)phenyl)-1H-pyrazole-3-carboxyamide]
4.4	Cc1cccc(-n2nc(C(=O)Nc3ccc(S(=O)(=O)C4CC4)cc3)cc2-c2ccc3ncsc3c2)n1 [Example 43, 5-(benzo[d]thiazol-6-yl)-N-(4-(cyclopropylsulfonyl)phenyl)-1-(6-methylpyridin-2-yl)-1H-pyrazole-3-carboxyamide]
13	Cc1cccc(-n2nc(C(=O)Nc3ccc(S(C)(=O)=O)cc3F)cc2-c2ccc3ncsc3c2)n1 [Example 44, 5-(benzo[d]thiazol-6-yl)-N-(2-fluoro-4-(methylsulfonyl)phenyl)-1-(6-methylpyridin-2-yl)-1H-pyrazole-3-carboxyamide]
2.4	Cc1cccc(-n2nc(C(=O)Nc3cccc(S(N)(=O)=O)c3)cc2-c2ccc3ncsc3c2)n1 [Example 45, 5-(benzo[d]thiazol-6-yl)-1-(6-methylpyridin-2-yl)-N-(3-sulfamoylphenyl)-1H-pyrazole-3-carboxyamide]
1.3	Cc1cccc(-n2nc(C(=O)Nc3ccc(S(N)(=O)=O)cc3)cc2-c2ccc3ncsc3c2)n1 [Example 46]
1.2	CNS(=O)(=O)c1cccc(NC(=O)c2cc(-c3ccc4ncsc4c3)n(-c3cccc(C)n3)n2)c1 [Example 47, 5-(benzo[d]thiazol-6-yl)-1-(6-methylpyridin-2-yl)-N-(3-(N-methylsulfamoyl)phenyl)-1H-pyrazole-3-carboxyamide]
4.1	CNS(=O)(=O)c1ccc(NC(=O)c2cc(-c3ccc4ncsc4c3)n(-c3cccc(C)n3)n2)cc1 [Example 48, 5-(benzo[d]thiazol-6-yl)-1-(6-methylpyridin-2-yl)-N-(4-(N-methylsulfamoyl)phenyl)-1H-pyrazole-3-carboxyamide]
5.6	Cc1cccc(-n2nc(C(=O)Nc3cccc(S(=O)(=O)NC4CC4)c3)cc2-c2ccc3ncsc3c2)n1 [Example 49, 5-(benzo[d]thiazol-6-yl)-N-(3-(N-cyclopropylsulfamoyl)phenyl)-1-(6-methylpyridin-2-yl)-1H-pyrazole-3-carboxyamide]
6.6	Cc1cccc(-n2nc(C(=O)Nc3ccc(S(=O)(=O)NC4CC4)cc3)cc2-c2ccc3ncsc3c2)n1 [Example 50, 5-(benzo[d]thiazol-6-yl)-N-(4-(N-cyclopropylsulfamoyl)phenyl)-1-(6-methylpyridin-2-yl)-1H-pyrazole-3-carboxyamide]
6.5	Cc1cccc(-n2nc(C(=O)Nc3cccc(S(=O)(=O)N(C)C)c3)cc2-c2ccc3ncsc3c2)n1 [Example 51, 5-(benzo[d]thiazol-6-yl)-N-(3-(N,N-dimethylsulfamoyl)phenyl)-1-(6-methylpyridin-2-yl)-1H-pyrazole-3-carboxyamide]
2.5	Cc1cccc(-n2nc(C(=O)Nc3ccc(S(=O)(=O)N(C)C)cc3)cc2-c2ccc3ncsc3c2)n1 [Example 52, 5-(benzo[d]thiazol-6-yl)-N-(4-(N,N-dimethylsulfamoyl)phenyl)-1-(6-methylpyridin-2-yl)-1H-pyrazole-3-carboxyamide]
2.4	Cc1cccc(-n2nc(C(=O)Nc3cccc(NS(C)(=O)=O)c3)cc2-c2ccc3ncsc3c2)n1 [Example 53, 5-(benzo[d]thiazol-6-yl)-1-(6-methylpyridin-2-yl)-N-(3-(methylsulfonamido)phenyl)-1H-pyrazole-3-carboxyamide]
